Laboratory results as given in ChEMBL document CHEMBL1130912, “SAR of novel biarylmethylamine dopamine D4 receptor ligands” (Bioorg Med Chem Lett, 1998).
Several values for one entry are separate records, joined by “and”; a condition that tells them apart may be missing. Equal entries are not always repeated.

How the values were obtained:
D(3) dopamine receptor [1] = target: T1, D(3) dopamine receptor (Homo sapiens, UniProt P35462); assay: Binding affinity to cloned human Dopamine receptor D3 expressed in CHO cells using [3H]spiperone at 100 nM concentration; format: cell-based
T1 sequence (P35462 whole entry): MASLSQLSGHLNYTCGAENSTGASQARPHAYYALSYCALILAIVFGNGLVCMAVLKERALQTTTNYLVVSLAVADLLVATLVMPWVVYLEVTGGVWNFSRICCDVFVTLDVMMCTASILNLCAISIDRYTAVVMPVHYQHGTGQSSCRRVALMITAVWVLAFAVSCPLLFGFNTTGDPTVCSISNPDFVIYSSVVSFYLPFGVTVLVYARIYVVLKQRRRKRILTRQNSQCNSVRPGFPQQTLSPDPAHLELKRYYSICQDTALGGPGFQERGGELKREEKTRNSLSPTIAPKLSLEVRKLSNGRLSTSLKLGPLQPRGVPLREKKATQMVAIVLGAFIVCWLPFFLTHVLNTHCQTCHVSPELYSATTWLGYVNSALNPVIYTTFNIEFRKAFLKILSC

[2] = target: T2, D(4) dopamine receptor (Homo sapiens) (UniProt P21917); assay: Binding affinity to cloned human dopamine receptor D4 expressed in CHO cells using [3H]spiperone at 100 nM concentration; format: cell-based
T2 sequence (whole entry): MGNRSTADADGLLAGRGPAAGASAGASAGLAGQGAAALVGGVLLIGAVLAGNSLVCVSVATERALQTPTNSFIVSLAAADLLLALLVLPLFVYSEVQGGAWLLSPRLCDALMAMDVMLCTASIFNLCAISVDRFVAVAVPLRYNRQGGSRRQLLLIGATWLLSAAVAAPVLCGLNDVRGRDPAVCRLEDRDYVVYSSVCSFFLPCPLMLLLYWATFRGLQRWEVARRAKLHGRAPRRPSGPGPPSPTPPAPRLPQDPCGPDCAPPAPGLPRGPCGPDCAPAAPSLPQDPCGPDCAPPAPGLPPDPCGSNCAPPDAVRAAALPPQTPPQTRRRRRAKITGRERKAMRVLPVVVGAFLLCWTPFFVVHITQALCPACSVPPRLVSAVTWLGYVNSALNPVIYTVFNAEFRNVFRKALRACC

[3] = target: T3, 5-hydroxytryptamine receptor 1A (Rattus norvegicus, UniProt P19327); assay: biochemical
T3 sequence (P19327 whole entry): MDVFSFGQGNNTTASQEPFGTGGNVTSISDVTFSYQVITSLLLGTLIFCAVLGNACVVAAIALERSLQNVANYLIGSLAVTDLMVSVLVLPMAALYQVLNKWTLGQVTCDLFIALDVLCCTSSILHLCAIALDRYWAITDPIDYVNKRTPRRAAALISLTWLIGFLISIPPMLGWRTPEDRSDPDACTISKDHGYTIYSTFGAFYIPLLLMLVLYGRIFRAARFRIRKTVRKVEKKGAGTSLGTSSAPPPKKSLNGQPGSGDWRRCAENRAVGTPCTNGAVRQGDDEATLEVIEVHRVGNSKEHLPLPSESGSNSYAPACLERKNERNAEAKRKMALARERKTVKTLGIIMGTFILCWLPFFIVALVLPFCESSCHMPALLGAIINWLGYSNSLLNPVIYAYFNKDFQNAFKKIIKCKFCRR
Description: Binding affinity to 5-HT1A receptor in rat hippocampus by [3H]8-OH-DPAT displacement.

D(2) dopamine receptor [4] = target: T4, D(2) dopamine receptor (Homo sapiens, UniProt P14416); assay: Binding affinity to cloned human Dopamine receptor D2 expressed in A9L cells using [3H]spiperone at 100 nM concentration; format: cell-based
T4 sequence (P14416 whole entry): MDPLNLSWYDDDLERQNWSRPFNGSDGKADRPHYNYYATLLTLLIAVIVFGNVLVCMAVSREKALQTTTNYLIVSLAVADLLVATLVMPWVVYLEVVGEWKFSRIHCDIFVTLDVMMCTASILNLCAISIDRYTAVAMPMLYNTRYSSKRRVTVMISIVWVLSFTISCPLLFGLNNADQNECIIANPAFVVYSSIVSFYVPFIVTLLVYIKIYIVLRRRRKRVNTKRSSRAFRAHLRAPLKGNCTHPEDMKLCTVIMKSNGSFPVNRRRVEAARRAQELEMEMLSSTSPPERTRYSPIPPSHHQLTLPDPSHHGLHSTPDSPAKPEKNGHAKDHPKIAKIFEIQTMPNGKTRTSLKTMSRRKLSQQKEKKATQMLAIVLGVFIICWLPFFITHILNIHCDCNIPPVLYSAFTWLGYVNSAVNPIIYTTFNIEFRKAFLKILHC

D(4) dopamine receptor = target: T5, D(4) dopamine receptor (Homo sapiens, UniProt P21917); assay: biochemical
T5 sequence (P21917 whole entry): T2 sequence (whole entry)
Description: Binding affinity to cloned human Dopamine receptor D4 expressed in CHO cells using [3H]spiperone

D(3) dopamine receptor [5] = target: T1, D(3) dopamine receptor; assay: biochemical
Description: Binding affinity to cloned human Dopamine receptor D3 expressed in CHO cells by [3H]spiperone displacement.

D(2) dopamine receptor [6] = target: T4, D(2) dopamine receptor; assay: biochemical
Description: Binding affinity to cloned human Dopamine receptor D2 expressed in A9L cells by [3H]spiperone displacement.

| SMILES | IC50 [3] [nM] | IC50 (D(4) dopamine receptor) | IC50 (D(3) dopamine receptor [5]) [nM] | IC50 (D(2) dopamine receptor [6]) [nM] | inhibition (D(3) dopamine receptor [1]) [%] | inhibition [2] [%] | inhibition (D(2) dopamine receptor [4]) [%] |
| --- | --- | --- | --- | --- | --- | --- | --- |
| c1cnc(N2CCN(Cc3ccc4c(c3)Cc3ccccc3-4)CC2)nc1 | > 100 | – | – | – | 91 | 87 | 89 |
| Fc1ccc(-c2cncc(CN3CCN(c4ccccc4)CC3)c2)cc1 | 70 | 6 nM | 33 | 23 | – | – | – |
| c1cnc(N2CCN(Cc3cccc4c3-c3ccccc3C4)CC2)nc1 | > 100 | 4800 nM | 4000 | 2300 | – | – | – |
| Fc1ccc(-c2cncc(CN3CCN(c4ncccn4)CC3)c2)cc1 | 100 | 9 nM and 7 nM | 150 | 120 | – | – | – |
| Fc1ccc(-c2cccc(CN3CCN(c4ncccn4)CC3)c2)cc1 | 700 | 2 nM and 7 nM | 59 | 49 | – | – | – |
| c1cnc(N2CCN(CC3c4ccccc4-c4ccccc43)CC2)nc1 | > 100 | – | – | – | 95 | 99 | 100 |
| CC(C)Oc1cccnc1N(C)C1CCN(Cc2ccccc2)CC1 | > 1000 | 5 nM and 8 nM | 5500 | 620 | – | – | – |
| Fc1cccc(-c2cccc(CN3CCN(c4ncccn4)CC3)c2)c1 | 300 | 4 nM and 9 nM | 200 | 81 | – | – | – |
| Fc1ccc(-c2cncc(CN3CCN(c4cnccn4)CC3)c2)cc1 | 400 | 25 nM | 480 | 450 | – | – | – |
| c1cnc(N2CCN(Cc3cccc4c3sc3ccccc34)CC2)nc1 | > 100 | – | – | – | 101 | 87 | 97 |
| c1cnc(N2CCN(Cc3cccc4c3Cc3ccccc3-4)CC2)nc1 | > 10000 | 20 nM | 5600 | 9800 | – | – | – |
| c1cnc(N2CCN(Cc3cccc4c3oc3ccccc34)CC2)nc1 | > 100 | 290 nM | – | – | 91 | – | 94 |

More lines, main results first:

| IC50 [3] [nM] | IC50 (D(4) dopamine receptor) | IC50 (D(3) dopamine receptor [5]) [nM] | IC50 (D(2) dopamine receptor [6]) [nM] | SMILES | inhibition (D(3) dopamine receptor [1]) [%] | inhibition [2] [%] | inhibition (D(2) dopamine receptor [4]) [%] |
| --- | --- | --- | --- | --- | --- | --- | --- |
| 900 | 8 nM | 320 | 250 | Fc1ccccc1-c1cccc(CN2CCN(c3ncccn3)CC2)c1 | – | – | – |
| 600 | 3 nM and 6 nM | 200 | 300 | c1cnc(N2CCN(Cc3cccc(-c4ccsc4)c3)CC2)nc1 | – | – | – |
| 10 | 7 nM | 300 | 60 | Fc1ccc(-c2cncc(CN3CCN(c4ccccn4)CC3)c2)cc1 | – | – | – |
| 2000 | 57 nM | 72 | 50 | COc1ccc(-c2cccc(CN3CCN(c4ncccn4)CC3)c2)cc1 | – | – | – |
| 400 | 8 nM | 200 | 70 | Fc1ccc(-c2cncc(CN3CCN(c4ccc(F)cc4)CC3)c2)cc1 | – | – | – |
| 300 | 16 nM | 710 | 360 | COc1ccccc1-c1cccc(CN2CCN(c3ncccn3)CC2)c1 | – | – | – |
| 20 | 3 nM and 7 nM | 8 | 25 | Fc1ccc(-c2cncc(CN3CCN(c4ccccc4F)CC3)c2)cc1 | – | – | – |
| 700 | 17 nM | 1100 | 490 | COc1cccc(-c2cccc(CN3CCN(c4ncccn4)CC3)c2)c1 | – | – | – |
